Laboratory results published in the supplement of paper PMC10307832.

Legend:
Test in all cases: relative viability (nuclei count vs DMSO), 5 days (fraction); higher = more cells survive
EKVX = test system: EKVX
How it was run: (§1)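 Relative viability divides the nuclei count in treated wells by that in vehicle wells. Lung cancer cell lines were seeded in 1536-well plates, dosed by pin tool the next day, and fixed and stained after 5 days in one step with final 0.05% Triton X-100, 1% formaldehyde and 1 ug/ml Hoechst. Dosing was a single drug or a fixed anchor-drug dose plus five library-drug doses (not always all listed) in √10 steps, and values are medians of duplicate plates imaged at 4×.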

HCC-366 = test system: HCC-366
How it was run: as §1

NCI-H2170 = test system: NCI-H2170
How it was run: as §1

NCI-H23 = test system: NCI-H23
How it was run: as §1

NCI-H1975 = test system: NCI-H1975
How it was run: as §1

NCI-H596 = test system: NCI-H596
How it was run: as §1

NCI-H441 = test system: NCI-H441
How it was run: as §1

NCI-H1734 = test system: NCI-H1734
How it was run: as §1

NCI-H1755 = test system: NCI-H1755
How it was run: as §1

NCI-H1792 = test system: NCI-H1792
How it was run: as §1

PC-3 [JPC-3] = test system: PC-3 [JPC-3]
How it was run: as §1

`NC(=O)Nc1cc(-c2cccc(F)c2)sc1C(=O)N[C@H]1CCCNC1` [AZD7762] + Cc1nc(NC(=O)N2CCC[C@H]2C(N)=O)sc1-c1ccnc(C(C)(C)C(F)(F)F)c1 [Alpelisib] (partner 2 µM) gave a relative viability (EKVX; first compound 0.1 µM) of 0.805, a relative viability (EKVX; first compound 0.3162 µM) of 0.787 and a relative viability (EKVX; first compound 1 µM) of 0.468. The relative viability (HCC-366; first compound 0.01 µM) was 0.45, the relative viability (HCC-366; first compound 0.03162 µM) was 0.521 and the relative viability (HCC-366; first compound 0.1 µM) was 0.229. For the same compound, the relative viability (HCC-366; first compound 0.3162 µM) was 0.189, the relative viability (HCC-366; first compound 1 µM) was 0.134 and the relative viability (NCI-H2170; first compound 0.01 µM) was 0.843. The relative viability (NCI-H2170; first compound 0.03162 µM) was 0.75, the relative viability (NCI-H2170; first compound 0.1 µM) was 0.727 and the relative viability (NCI-H2170; first compound 0.3162 µM) was 0.797. For the same compound, the relative viability (NCI-H2170; first compound 1 µM) was 0.776, the relative viability (NCI-H23; first compound 0.01 µM) was 0.859 and the relative viability (NCI-H23; first compound 0.03162 µM) was 0.721. It also gave a relative viability (NCI-H23; first compound 0.1 µM) of 0.745, a relative viability (NCI-H23; first compound 0.3162 µM) of 0.562 and a relative viability (NCI-H23; first compound 1 µM) of 0.418. It also gave a relative viability (NCI-H1975; first compound 0.01 µM) of 0.678, a relative viability (NCI-H1975; first compound 0.03162 µM) of 0.585 and a relative viability (NCI-H1975; first compound 0.1 µM) of 0.579. The relative viability (NCI-H1975; first compound 0.3162 µM) was 0.436, the relative viability (NCI-H1975; first compound 1 µM) was 0.322 and the relative viability (NCI-H596; first compound 0.01 µM) was 0.549. For the same compound, the relative viability (NCI-H596; first compound 0.03162 µM) was 0.514, the relative viability (NCI-H596; first compound 0.1 µM) was 0.481 and the relative viability (NCI-H596; first compound 0.3162 µM) was 0.503. For the same compound, the relative viability (NCI-H596; first compound 1 µM) was 0.421, the relative viability (NCI-H441; first compound 0.01 µM) was 1.17 and the relative viability (NCI-H441; first compound 0.03162 µM) was 0.831. The relative viability (NCI-H441; first compound 0.1 µM) was 1.2, the relative viability (NCI-H441; first compound 0.3162 µM) was 1.01 and the relative viability (NCI-H441; first compound 1 µM) was 1.09. For the same compound, the relative viability (NCI-H1734; first compound 0.01 µM) was 0.729, the relative viability (NCI-H1734; first compound 0.03162 µM) was 0.782 and the relative viability (NCI-H1734; first compound 0.1 µM) was 0.775. For the same compound, the relative viability (NCI-H1734; first compound 0.3162 µM) was 0.753, the relative viability (NCI-H1734; first compound 1 µM) was 0.646 and the relative viability (NCI-H1755; first compound 0.01 µM) was 0.957. For the same compound, the relative viability (NCI-H1755; first compound 0.03162 µM) was 0.924, the relative viability (NCI-H1755; first compound 0.1 µM) was 0.999 and the relative viability (NCI-H1755; first compound 0.3162 µM) was 0.907. For the same compound, the relative viability (NCI-H1755; first compound 1 µM) was 0.547, the relative viability (NCI-H1792; first compound 0.01 µM) was 0.826 and the relative viability (NCI-H1792; first compound 0.03162 µM) was 0.781. It also gave a relative viability (NCI-H1792; first compound 0.1 µM) of 0.727, a relative viability (NCI-H1792; first compound 0.3162 µM) of 0.751 and a relative viability (NCI-H1792; first compound 1 µM) of 0.9. For the same compound, the relative viability (PC-3 [JPC-3]; first compound 0.01 µM) was 0.998, the relative viability (PC-3 [JPC-3]; first compound 0.03162 µM) was 1.03 and the relative viability (PC-3 [JPC-3]; first compound 0.1 µM) was 1.05. For the same compound, the relative viability (PC-3 [JPC-3]; first compound 0.3162 µM) was 1.1 and the relative viability (PC-3 [JPC-3]; first compound 1 µM) was 0.897.
